Non-standard residues stand in square brackets, D forms with d. Residues, ends and D or L forms follow the SMILES beside them. 2Nal = N[C@@H](Cc1ccc2ccccc2c1)C(=O)O
What was measured:
[1] = molecular target: T1, Melanocyte-stimulating hormone receptor (Homo sapiens, UniProt Q01726); assay: Agonist activity at human MC1R transfected in HEK293 cells; type: functional, cell-based
Melanocortin receptor 3 [2] = molecular target: T2, Melanocortin receptor 3 (Homo sapiens, UniProt P41968); assay: Displacement of europium labeled NDP-alpha-MSH from human MC3R expressed in HEK293 cells; type: cell-based
T2 sequence (P41968 whole entry): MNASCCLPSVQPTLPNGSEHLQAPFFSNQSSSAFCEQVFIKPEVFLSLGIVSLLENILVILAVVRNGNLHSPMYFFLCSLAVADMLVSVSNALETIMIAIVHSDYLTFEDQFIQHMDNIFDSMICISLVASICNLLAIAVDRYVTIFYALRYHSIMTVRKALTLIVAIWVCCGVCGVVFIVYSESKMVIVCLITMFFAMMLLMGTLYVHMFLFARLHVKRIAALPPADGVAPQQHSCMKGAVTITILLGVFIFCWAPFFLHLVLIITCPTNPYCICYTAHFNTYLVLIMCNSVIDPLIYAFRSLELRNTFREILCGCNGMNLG

Melanocortin receptor 3 [3] = molecular target: T2, Melanocortin receptor 3; assay: Agonist activity at human MC3R transfected in HEK293 cells; type: functional, cell-based
Melanocortin receptor 4 [4] = molecular target: T3, Melanocortin receptor 4 (Homo sapiens, UniProt P32245); assay: Agonist activity at human MC4R transfected in HEK293 cells; type: functional, cell-based
T3 sequence (P32245 whole entry): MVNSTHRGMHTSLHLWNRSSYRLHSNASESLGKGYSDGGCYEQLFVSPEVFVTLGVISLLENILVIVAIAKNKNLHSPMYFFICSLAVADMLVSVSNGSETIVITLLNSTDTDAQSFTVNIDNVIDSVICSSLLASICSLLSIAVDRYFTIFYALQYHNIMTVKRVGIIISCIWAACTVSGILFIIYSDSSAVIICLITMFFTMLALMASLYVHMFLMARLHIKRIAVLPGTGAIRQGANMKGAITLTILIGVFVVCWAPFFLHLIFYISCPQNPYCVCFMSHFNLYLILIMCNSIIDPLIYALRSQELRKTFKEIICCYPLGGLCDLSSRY

Melanocortin receptor 4 [5] = molecular target: T3, Melanocortin receptor 4; assay: Displacement of europium labeled NDP-alpha-MSH from human MC4R expressed in HEK293 cells; type: cell-based
[6] = molecular target: T1, Melanocyte-stimulating hormone receptor; assay: Displacement of europium labeled NDP-alpha-MSH from human MC1R expressed in HEK293 cells; type: cell-based
[7] = molecular target: Melanocortin receptor (M1 and M4) (Homo sapiens) (UniProt P32245+Q01726); assay: Selectivity for human MC4R over human MC1R; type: protein assay
[8] = Absorptive permeability across Caco-2 cell membrane; type: ADME, cell-based; details: human, read-out: permeability (converted)
[9] = Exsorptive permeability across Caco-2 cell membrane; type: ADME, cell-based; details: human, read-out: permeability (converted)

T1 sequence (Q01726 whole entry): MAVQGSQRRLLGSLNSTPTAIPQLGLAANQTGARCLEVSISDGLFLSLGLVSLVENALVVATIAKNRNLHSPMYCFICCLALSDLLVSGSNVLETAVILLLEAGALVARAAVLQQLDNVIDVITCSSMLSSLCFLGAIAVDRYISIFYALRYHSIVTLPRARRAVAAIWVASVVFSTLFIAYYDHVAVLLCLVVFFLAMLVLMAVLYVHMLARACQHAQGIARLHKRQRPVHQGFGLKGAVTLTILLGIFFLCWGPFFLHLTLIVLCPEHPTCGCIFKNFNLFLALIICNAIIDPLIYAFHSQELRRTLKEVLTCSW

EC50 [1]	Ki (Melanocortin receptor 3 [2])	EC50 (Melanocortin receptor 3 [3])	EC50 (Melanocortin receptor 4 [4])	Ki (Melanocortin receptor 4 [5])	Ki [6]	Selectivity ratio [7]	Papp A→B [8]	Papp [9]	SMILES
52 nM	219 nM	593 nM	17 nM	46 nM	55 nM	–	–	–	NC(N)=NCCC[C@H]1C[C@@H](OCc2ccc3ccccc3c2)CN1C(=O)[C@@H](Cc1ccccc1)NC(=O)[C@@H]1CCCN1
1750 nM	19200 nM	–	20000 nM	2350 nM	1690 nM	–	–	–	CC(=O)N[C@@H](Cc1ccc(O)cc1)C(=O)N[C@H](Cc1ccccc1)C(=O)N1C[C@H](OCc2ccc3ccccc3c2)C[C@H]1CCCN=C(N)N
1810 nM	2880 nM	1170 nM	252 nM	492 nM	2450 nM	–	–	–	CC(=O)N[C@@H](Cc1ccc(O)cc1)C(=O)N[C@H](Cc1ccccc1)C(=O)N1C[C@@H](OCc2ccc3ccccc3c2)C[C@H]1CCCN=C(N)N
20000 nM	22600 nM	–	809 nM	2010 nM	4380 nM	–	–	–	CNC(=O)[C@H](Cc1ccc2ccccc2c1)NC(=O)[C@H](CCCN=C(N)N)NC(=O)[C@H](N)Cc1ccccc1
14 nM	2860 nM	248 nM	–	–	35 nM	–	–	–	CC(=O)N[C@@H](Cc1c[nH]cn1)C(=O)N[C@@H](Cc1ccccc1)C(=O)N[C@@H](CCCN=C(N)N)C(=O)N[C@@H](Cc1c[nH]c2ccccc12)C(N)=O
98 nM	86 nM	232 nM	10 nM	10 nM	42 nM	–	–	–	N=C(N)NCCC[C@H]1C[C@@H](OCc2ccc3ccccc3c2)CN1C(=O)[C@@H](Cc1ccccc1)NC(=O)[C@@H]1Cc2ccccc2CN1
585 nM	403 nM	2050 nM	266 nM	137 nM	611 nM	–	–	–	NC(N)=NCCC[C@H]1C[C@@H](OCc2ccc3ccccc3c2)CN1C(=O)[C@@H](Cc1ccccc1)NC(=O)CCc1ccccc1
88 nM	42 nM	85 nM	14 nM	21 nM	85 nM	4	–	–	CC(=O)N[C@@H](Cc1ccc(O)cc1)C(=O)N[C@H](Cc1ccccc1)C(=O)N1C[C@H](OCc2ccc3ccccc3c2)C[C@@H]1CCCN=C(N)N
20000 nM	–	–	–	–	–	–	–	–	CNC(=O)[C@H](Cc1ccc2ccccc2c1)NC(=O)[C@H](CCCN=C(N)N)NC(=O)[C@@H](Cc1ccccc1)NC(=O)[C@H](Cc1ccc(O)cc1)NC(C)=O (Ac-Y[dF]R[2Nal]-NHMe)
0.045 nM	117 nM	1.3 nM	2.3 nM	57 nM	1.3 nM	–	–	–	CC(=O)N[C@@H](Cc1c[nH]cn1)C(=O)N[C@H](Cc1ccccc1)C(=O)N1C[C@@H](OCc2ccc3ccccc3c2)C[C@@H]1CCCN=C(N)N
30 nM	156 nM	260 nM	14 nM	31 nM	40 nM	–	–	–	NC(N)=NCCC[C@H]1C[C@@H](OCc2ccc3ccccc3c2)CN1C(=O)[C@@H](Cc1ccccc1)NC(=O)[C@@H]1CCCCN1
14 nM	1200 nM	541 nM	5.7 nM	29 nM	13 nM	–	–	–	CNC(=O)[C@H](Cc1ccc2ccccc2c1)NC(=O)[C@H](CCCN=C(N)N)NC(=O)[C@@H](Cc1ccccc1)NC(=O)[C@H](Cc1c[nH]cn1)NC(C)=O
521 nM	29100 nM	2990 nM	1620 nM	8160 nM	1570 nM	–	–	–	NC(=O)C[C@H](N)C(=O)N[C@H](Cc1ccccc1)C(=O)N1C[C@@H](OCc2ccc3ccccc3c2)C[C@H]1CCCN=C(N)N
24 nM	703 nM	266 nM	249 nM	760 nM	15 nM	–	–	–	NC(N)=NCCNC(=O)[C@H]1C[C@@H](OCc2ccc3ccccc3c2)CN1C(=O)[C@@H](Cc1ccccc1)NC(=O)[C@@H](N)Cc1c[nH]cn1
8 nM	7230 nM	3720 nM	986 nM	2880 nM	4.7 nM	–	–	–	CC(=O)N[C@@H](Cc1c[nH]cn1)C(=O)N[C@H](Cc1ccccc1)C(=O)N1C[C@H](OCc2ccc3ccccc3c2)C[C@H]1CCCN=C(N)N
28 nM	1260 nM	286 nM	54 nM	121 nM	125 nM	–	–	–	N=C(N)NCCC[C@H]1C[C@H](OCc2ccc3ccccc3c2)CN1C(=O)[C@@H](Cc1ccccc1)NC(=O)[C@@H]1CCCCN1
449 nM	7440 nM	–	10800 nM	1710 nM	340 nM	–	–	–	N=C(N)NCCC[C@@H]1C[C@@H](OCc2ccc3ccccc3c2)CN1C(=O)[C@@H](Cc1ccccc1)NC(=O)[C@@H]1CCCCN1
45 nM	50 nM	42 nM	4.3 nM	18 nM	35 nM	–	–	–	CC(=O)N[C@@H](CCC(N)=O)C(=O)N[C@H](Cc1ccccc1)C(=O)N1C[C@H](OCc2ccc3ccccc3c2)C[C@@H]1CCCN=C(N)N

EC50 [1]	Ki (Melanocortin receptor 3 [2])	EC50 (Melanocortin receptor 3 [3])	EC50 (Melanocortin receptor 4 [4])	Ki (Melanocortin receptor 4 [5])	Ki [6]	Selectivity ratio [7]	Papp A→B [8]	Papp [9]	SMILES
4.3 nM	835 nM	10 nM	8 nM	187 nM	103 nM	–	–	–	NC(=O)C[C@H](N)C(=O)N[C@H](Cc1ccccc1)C(=O)N1C[C@@H](OCc2ccc3ccccc3c2)C[C@@H]1CCCN=C(N)N
–	–	–	–	–	–	–	2.17 ×10⁻⁶ cm/s	1.83 ×10⁻⁶ cm/s	OC[C@@H](O)[C@@H](O)[C@H](O)[C@H](O)CO [MANNITOL]
72 nM	529 nM	214 nM	36 nM	97 nM	562 nM	–	–	–	N=C(N)NCCC[C@H]1C[C@H](OCc2ccc3ccccc3c2)CN1C(=O)[C@@H](Cc1ccccc1)NC(=O)[C@@H]1Cc2ccccc2CN1
1070 nM	7160 nM	–	515 nM	2260 nM	1790 nM	–	–	–	N=C(N)NCCC[C@@H]1C[C@H](OCc2ccc3ccccc3c2)CN1C(=O)[C@@H](Cc1ccccc1)NC(=O)[C@@H]1CCCCN1
0.3 nM	26 nM	15 nM	3.7 nM	17 nM	0.65 nM	–	–	–	CC(=O)N[C@@H](Cc1cnc[nH]1)C(=O)N[C@H](Cc1ccccc1)C(=O)N1C[C@H](OCc2ccc3ccccc3c2)C[C@@H]1CCCN=C(N)N
201 nM	154 nM	313 nM	20 nM	59 nM	182 nM	–	–	–	CC(=O)N[C@@H](Cc1ccccc1)C(=O)N[C@H](Cc1ccccc1)C(=O)N1C[C@H](OCc2ccc3ccccc3c2)C[C@@H]1CCCN=C(N)N
1340 nM	501 nM	1220 nM	254 nM	559 nM	2050 nM	4	–	–	CC(=O)N[C@@H](Cc1ccc(O)cc1)C(=O)N[C@H](Cc1ccccc1)C(=O)N1C[C@H](OCc2ccc3ccccc3c2)C[C@@H]1C(=O)NCCN=C(N)N
71 nM	425 nM	68 nM	39 nM	248 nM	138 nM	–	–	–	CC(=O)N[C@@H](Cc1ccc(O)cc1)C(=O)N[C@H](Cc1ccccc1)C(=O)N1C[C@@H](OCc2ccc3ccccc3c2)C[C@@H]1CCCN=C(N)N
1220 nM	1960 nM	1130 nM	9 nM	14 nM	2970 nM	> 150	–	–	CC(=O)N[C@@H](Cc1c[nH]cn1)C(=O)N[C@H](Cc1ccccc1)C(=O)N1C[C@@H](OCc2ccc3ccccc3c2)C[C@H]1CCCN=C(N)N
328 nM	1490 nM	563 nM	184 nM	632 nM	893 nM	–	–	–	CC(=O)N[C@@H](CCC(N)=O)C(=O)N[C@H](Cc1ccccc1)C(=O)N1C[C@H](OCc2ccc3ccccc3c2)C[C@@H]1C(=O)NCCN=C(N)N
19 nM	8100 nM	1470 nM	1090 nM	4390 nM	19 nM	–	–	–	N=C(N)NCCC[C@@H]1C[C@@H](OCc2ccc3ccccc3c2)CN1C(=O)[C@@H](Cc1ccccc1)NC(=O)[C@@H]1Cc2ccccc2CN1
1360 nM	4180 nM	3150 nM	457 nM	670 nM	1400 nM	–	–	–	N=C(N)NCCC[C@@H]1C[C@H](OCc2ccc3ccccc3c2)CN1C(=O)[C@@H](Cc1ccccc1)NC(=O)[C@@H]1Cc2ccccc2CN1
539 nM	4390 nM	825 nM	97 nM	411 nM	1620 nM	4	–	–	N=C(N)NCCNC(=O)[C@H]1C[C@@H](OCc2ccc3ccccc3c2)CN1C(=O)[C@@H](Cc1ccccc1)NC(=O)[C@@H]1Cc2ccccc2CN1
104 nM	3180 nM	2470 nM	501 nM	1020 nM	121 nM	–	–	–	NC(N)=NCCNC(=O)[C@H]1C[C@@H](OCc2ccc3ccccc3c2)CN1C(=O)[C@@H](Cc1ccccc1)NC(=O)C1CCNCC1
151 nM	1240 nM	871 nM	291 nM	305 nM	381 nM	–	–	–	NC(N)=NCCC[C@H]1C[C@@H](OCc2ccc3ccccc3c2)CN1C(=O)[C@H](N)Cc1ccccc1
402 nM	15400 nM	–	20000 nM	6670 nM	443 nM	–	–	–	NC(=O)C[C@H](N)C(=O)N[C@H](Cc1ccccc1)C(=O)N1C[C@H](OCc2ccc3ccccc3c2)C[C@H]1CCCN=C(N)N
390 nM	3850 nM	1770 nM	292 nM	1380 nM	631 nM	–	–	–	N=C(N)NCCNC(=O)[C@H]1C[C@@H](OCc2ccc3ccccc3c2)CN1C(=O)[C@@H](Cc1ccccc1)NC(=O)[C@@H]1CCCCN1

— ChEMBL document CHEMBL1138948, “Design, synthesis, and evaluation of proline and pyrrolidine based melanocortin receptor agonists. A conformationally restricted dipeptide mimic approach” (J Med Chem, 2006)
